Data reported in patent publication US20130281512A1, “AGENTS FOR TREATING DISORDERS INVOLVING MODULATION OF RYANODINE RECEPTORS” (LES LABORATOIRES SERVIER, priority 2012, published 2013).
Where two headings read alike, the source gives them in different places.

Tests used:
mdx mice = test: Muscle function in mouse muscular dystrophy model (mdx): voluntary wheel activity, EDL specific force; format: in vivo
Procedure: Voluntary activity on wheel, body weight, and average water consumption were measured in the first 3 weeks. Specific muscle force was measured after 4 weeks of treatment, at the end of the study.
(§1) Distance traveled (Km/day) over a 24 hr period was analyzed as an index of improved functional activity (see, DMD_M.2.1.002 SOP at http://www.treat-nmd.eu/). At the conclusion of the study, Extensor digitorum longus (EDL) muscle was isolated for muscle force analysis as further described hereinbelow. Blood was collected from each mouse by retro-orbital bleeds at the end of the study (after end of dark cycle—about 7 AM) to assess drug plasma concentrations. Experiments were blinded.
At the end of the study, EDL muscle was dissected from hind limbs for isometric force analysis using the 407A Muscle Test System from Aurora Scientific (Aurora, Ontario, Canada). A 6-0 suture were tied to each tendon and the entire EDL muscle, tendon to tendon, was transferred to a Ragnoti bath of O2/CO2 (95%/5%) bubbled Tyrode solution (in mM: NaCl 121, KCl 5.0, CaCl2 1.8, MgCl2, NaH2PO4, NaHCO3 24, and glucose 5.5). Using the sutures, one tendon was tied vertically to a stainless steel hook connected to a force transducer The other sutured tendon was clamped down into a moving arm on the Aurora system. The EDL muscle was stimulated to contract using an electrical field between two platinum electrodes. At the start of each experiment, muscle length was adjusted to yield the maximum force. Force-frequency relationships were determined by triggering contraction using incremental stimulation frequencies (5-250 Hz for 200 ms at suprathreshold voltage). Between stimulations the muscle was allowed to rest ˜3 min. At the end of the force measurement, the length (Lo) of the EDL muscle while sutured in the Aurora system was measured excluding the tendons. The EDL muscle was then removed from the system and weighed after clipping the end tendons and sutures off. The EDL muscle was then frozen in liquid nitrogen. The cross-sectional area (mm^2) of the EDL muscle was calculated by dividing the EDL muscle weight by the EDL muscle length and the mammalian muscle density constant of […] (Yamada, T., et al. Arthritis and rheumatism 60:3280-3289). To determine EDL specific force (kN/m^2), the absolute tetanic force was divided by the EDL muscle cross-sectional area.
For statistical analysis of distance traveled, change from baseline was calculated for each day by subtracting the baseline value (defined as the mean of the two measurements obtained on Day −1 and Day −2) from each post dose assessment. Change from baseline was then statistically analyzed with a repeated measures analysis of variance model with fixed effects for treatment, day and treatment by day interaction. Baseline was included as a covariate and mouse was included as a random effect. The most appropriate covariance structure was determined through investigation of the Akaike's Information Criterion (AIC) and Bayesian Information Criterion (BIC). The covariance structures investigated were autoregressive, compound symmetry, unstructured, and toeplitz. The optimal covariance structure selected was compound symmetry. From the model, point estimates and associated 95% confidence intervals (CI) for the difference in change from baseline between each ARM210 treated mice group and vehicle treated group (for both mdx and C57BL/6 mice) were obtained for each day, each week, and the entire assessment period from Day 1 to Day 19. As this study is exploratory in nature, no adjustments in multiple comparisons were made.
Specific force was analyzed using a repeated measures analysis of variance model with fixed effects for treatment, frequency and treatment by frequency interaction and mouse as a random effect. Similar to the analysis described above, the optimal covariance structure was chosen from among autoregressive, compound symmetry, unstructured, and toeplitz. […]

[1] = Morning blood exposure (drug plasma concentrations) in mdx and WT mice; format: in vivo; details: mouse, oral, read-out: Morning blood exposure (average±SEM)
Procedure: as §1

[2] = Metabolic stability in mouse microsomes (% remaining); format: in vitro ADME
Procedure: 0.1M Tris HCl buffer at pH 7.4 containing 5 mM EDTA.
To a 50 mL falcon tube containing 2.79 mL of dilution buffer were added 0.429 mL of NADPH-regenerating soln. A and 0.079 mL of NADPH-regenerating soln. B […]
[…] A 50 mL falcon tube containing 3.32 mL of dilution buffer was prewarmed at 37° C. for 15 min. (at least 10 min.) 0.178 mL of microsome (24.6 mg/mL) were added to the prewarmed dilution buffer. The protein concentration of this microsome preparation was 1.25 mg/mL.
Sample (Test Compound)—Original and Intermediate Stock Solutions:
100 μM intermediate solution of the test compound from the original stock solution were prepared using the dilution buffer. A 5 μM solution was prepared by diluting the 100 μM intermediate solution using dilution buffer.
(The experiments were conducted in 1.5 mL eppendorf micro centrifuge tubes) 0 minutes incubation. Procedure: a. Add 100 μL of prewarmed microsomes b. Add 50 μL of 5 μM solution of the test compound. c. Add 500 μL of cold stop solution (ice cold Methanol) d. Add 100 μL of NADPH cofactor solution to the eppendorf. a. Vortex mix the eppendorf. […]
b. Add 100 μL of NADPH cofactor solution to the eppendorf. c. Add 50 μL of 5 μM solution of the test compound. d. Add 100 μL of prewarmed microsomes e. Incubate the eppendorf at 37° C. 300 rpm for ‘t’ min. on a thermomixer. f. Remove the eppendorf from thermomixer g. Add 500 μL of cold stop solution (ice cold Methanol) h. Vortex mix the eppendorf.
Both the ‘0’ and ‘t’ minutes incubated samples were centrifuged at 15, 000 rcf at 4° C. for 15 min. 500 μL of the supernatant solution was removed and subject it to LC/MS analysis (SIM—Selected Ion Monitoring) […]
Results are expressed as % test compound remaining=(MS Area response of T min sample/MS Area response of ‘0’ min sample)*100. The MS area used is an average of duplicate injections.
Time points=0, 15, 30 and 60 min. for each test compound
2 μM Imipramine—5 min. and 2 μM Imipramine—15 min. incubation was used as a positive control for the rat and mouse liver microsome stability experiments.

[3] = mdx and WT mice, drinking water

COc1ccc2c(c1)CN(Cc1ccc(C(=O)O)cc1)CCS2 [Compound 1, 4-((7-Methoxy-2,3-dihydrobenzo[f][1,4]thiazepin-4(5H)-yl)methyl)benzoic acid]
body weight (mdx mice; [3]): did not affect
water consumption (mdx mice; [3]): No dose-dependent effects
specific muscle force (EDL) (mdx mice; mdx mice, 50 mg/kg/d, stimulation frequencies of 150 Hz and above, P<0.05): statistically significant increase
specific force of EDL muscle (mdx mice; mdx mice, 5, 10 and 50 mg/kg/d, 4 weeks): increased specific force in mdx muscle dose-dependently
distance traveled on voluntary wheel (mdx mice; mdx mice, 10 and 50 mg/kg/d (target dose) sodium salt in drinking water, day 1 to day 19, vs vehicle, P<0.001): significantly longer distances
time to treatment effect on wheel activity after treatment initiation (mdx mice; mdx mice, drinking water): 2 to 3 days
concentration at 4 weeks ([1]; C57BL/6 (WT), 50 mg/kg/d-dosed WT mice): 72.8 ± 7 µM
concentration at 4 weeks ([1]; C57BL/10ScSn-DMD^mdx/J (mdx), 5 mg/kg/d-dosed mdx mice): 3.3 ± 0.4 µM
concentration at 4 weeks ([1]; C57BL/10ScSn-DMD^mdx/J (mdx), 10 mg/kg/d-dosed mdx mice): 10.7 ± 0.9 µM
concentration at 4 weeks ([1]; C57BL/10ScSn-DMD^mdx/J (mdx), 50 mg/kg/d-dosed mdx mice): 52.8 ± 1.7 µM
% remaining ([2]; 15 min): 99%
% remaining ([2]; 30 min): 98%
% remaining ([2]; 1 h): 82%
